From patent publication US11976083B2, “Inhibitors of peptidylarginine deiminases” (Gilead Sciences, Inc., priority 2020, dated 2024) come the findings set out here.

Usually IC50 stands for the concentration that inhibits the measured activity by half.

The target of the experiment is T1, human PAD4 (Homo sapiens, UniProt Q9UM07).
T1 construct: human PAD4 (NM_012387), A2-P663, was PCR amplified; His-SUMO (N, cleaved yes); made in house; host or cells: E. coli BL21(DE3)
Description: In vitro PAD4 BAEE biochemical assay. Conditions: BAEE substrate 3 mM, 5 nM PAD4, 2 mM calcium chloride; geometric mean of multiple experiments. The essentials:
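Recombinant PAD4 (5 nM final) with 2 mM CaCl2 was preincubated with compound for 30 min at 25 °C in MOPS pH 7.6 buffer with DTT, then reacted with 3 mM BAEE for 2 h at 25 °C. Released ammonia was detected fluorimetrically with o-phthalaldehyde/DTT; IC50 from four-parameter fit, geometric mean of experiments.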

T1 sequence (Q9UM07 2-663): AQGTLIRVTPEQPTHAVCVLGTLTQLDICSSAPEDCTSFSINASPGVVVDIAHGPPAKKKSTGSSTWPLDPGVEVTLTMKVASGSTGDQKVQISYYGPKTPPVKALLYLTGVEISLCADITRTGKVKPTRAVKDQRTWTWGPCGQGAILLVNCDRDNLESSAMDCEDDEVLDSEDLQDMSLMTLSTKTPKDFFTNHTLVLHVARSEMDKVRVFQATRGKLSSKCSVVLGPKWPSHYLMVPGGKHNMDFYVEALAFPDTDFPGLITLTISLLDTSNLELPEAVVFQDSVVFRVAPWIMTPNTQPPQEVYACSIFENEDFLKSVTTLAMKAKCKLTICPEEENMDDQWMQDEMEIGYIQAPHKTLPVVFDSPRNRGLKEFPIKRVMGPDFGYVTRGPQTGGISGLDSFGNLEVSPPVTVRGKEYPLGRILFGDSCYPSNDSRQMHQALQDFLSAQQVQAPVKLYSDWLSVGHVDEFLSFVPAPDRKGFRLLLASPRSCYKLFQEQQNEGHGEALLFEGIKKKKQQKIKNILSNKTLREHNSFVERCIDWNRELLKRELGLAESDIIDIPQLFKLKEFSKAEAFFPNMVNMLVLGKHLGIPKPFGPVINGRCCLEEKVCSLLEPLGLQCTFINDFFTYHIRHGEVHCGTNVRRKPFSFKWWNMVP

With `COc1cc(C(=O)N2C[C@H](N)[C@@H]3CC[C@H]2C3)cc2nc(-c3cc4ccc5nc4n3CCCCCC[C@@](c3ccccn3)(C(F)F)C(=O)N[C@@H]5C)n(C)c12` [Example 890, (8~{S},11~{R})-17-[5-[(1~{S},4~{R},5~{R})-4-amino-2-azabicyclo[3.2.1]octane-2-carbonyl]-7-methoxy-1-methyl-benzimidazol-2-yl]-8-(difluoromethyl)-11-methyl-8-(2-pyridyl)-1,10,19-triazatricyclo [10.5.2.0^{15,18}]nonadeca-12(19),13,15(18), 16-tetraen-9-one], the IC50 stood at 10 nM.
As for `COc1cc2c(cc1C(=O)N[C@H]1CNCC[C@@H]1F)nc(-c1cc3ccc4nc3n1CCCCCCC(C)(C)C(=O)N[C@@H]4C)n2C` [Example 592, ~{N}-[(3~{S},4~{S})-4-fluoro-3-piperidyl]-6-methoxy-1-methyl-2-[(11~{R})-8,8,11-trimethyl-9-oxo-1,10,19-triazatricyclo[10.5.2.0^ {15,18}]nonadeca-12,14,16,18-tetraen-17-yl]benzimidazole-5-carboxamide], the figure is 175 nM.
Regarding `COc1cc(C(=O)N[C@H]2CNCC[C@@H]2F)cc2nc(-c3cc4ccc5nc4n3CCCCCc3c(cnn3C)C(=O)N[C@@H]5C)n(C)c12` [Example 180, 2-[(2~{R})-2,8-dimethyl-4-oxo-3,7,8,15,21-pentazatetracyclo[13.5.2.0^{5,9}.0^{18,22}]docosa-1(21),5(9),6,16,18(22),19-hexaen-16-yl]-~{N}-[(3~{S},4~{S})-4-fluoro-3-piperidyl]-7-methoxy-1-methyl-benzimidazole-5-carboxamide], the 50% inhibitory concentration (IC50) came to 75 nM.
For `COc1cc(C(=O)N[C@H]2CNCCC2(F)F)cc2nc(-c3cc4ccc5cc4n3CCCCCCC(C)(C)C(=O)N[C@@H]5C)n(C)c12` [Example 191, ~{N}-[(3~{S})-4,4-difluoro-3-piperidyl]-7-methoxy-1-methyl-2-[(11~{R})-8,8,11-trimethyl-9-oxo-1,10-diazatricyclo[10.5.2.0^{15,18}]nonadeca-12(19),13,15(18),16-tetraen-17-yl]benzimidazole-5-carboxamide], the IC50 stood at 140 nM.
Consider `C[C@H]1NC(=O)c2ccncc2CCCCCn2c(-c3nc4cc(C(=O)N[C@H]5CNCC[C@@H]5F)c(F)cc4n3C3CC3)cc3ccc1nc32` [Example 353, 1-cyclopropyl-6-fluoro-~{N}-[(3~{S},4~{S})-4-fluoro-3-piperidyl]-2-[(2~{R})-2-methyl-4-oxo-3,8,16,22-tetrazatetracyclo[14.5.2.0^{5,10}.0^{19,23}]tricosa-1(22),5,7,9,17,19(23),20-heptaen-17-yl]benzimidazole-5-carboxamide], for which the IC50 was 29 nM.
In the case of `C[C@H]1NC(=O)[C@@H]2C[C@H]2CCCC(F)(F)Cn2c(-c3nc4cc(C(=O)N5C[C@H](N)[C@@H]6CC[C@H]5C6)cc(F)c4n3CC(F)F)cc3ccc1nc32` [Example 922, (2~{R},5~{R},7~{R})-14-[5-[(1~{S},4~{R},5~{R})-4-amino-2-azabicyclo[3.2.1]octane-2-carbonyl]-1-(2,2-difluoroethyl)-7-fluoro-benzimidazol-2-yl]-11,11-difluoro-2-methyl-3,13,19-triazatetracyclo [11.5.2.0^{5,7}.0^{16,20}] icosa-1(19),14,16(20),17-tetraen-4-one], the IC50 was 35 nM.
Under `C[C@H]1NC(=O)c2cnc(Cl)cc2CCCCCn2c(-c3nc4cc(C(=O)N5C[C@H](N)[C@@H]6CC[C@H]5C6)cc(F)c4n3C3CC3)cc3ccc1nc32` [Example 810, (2~{R})-17-[5-[(1~{S),4~{R},5~ {R})-4-amino-2-azabicyclo [3.2.1]octane-2-carbonyl]-1-cyclopropyl-7-fluoro-benzimidazol-2-yl]-8-chloro-2-methyl-3,7,16,22-tetrazatetracyclo[14.5.2.0^ {5,10}.0^{19,23}] tricosa-1(21),5(10),6,8,17,19, 22-heptaen-4-one] stands 25 nM.
Take `COc1cc(C(=O)N2CCC[C@@H](N)C2)cc2nc(-c3cc4ccc5cc4n3CCCCCCC(C)(C)C(=O)N[C@@H]5C)n(C3CC3)c12` [Example 160, (11~{R})-17-[5-[(3~{R})-3-aminopiperidine-1-carbonyl]-1-cyclopropyl-7-methoxy-benzimidazol-2-yl]-8,8,11-trimethyl-1,10-diazatricyclo[10.5.2.0^{15,18}]nonadeca-12(19),13,15(18),16-tetraen-9-one]: the IC50 was determined as 53 nM.
With `C[C@@H]1[C@H](N)CCCN1C(=O)c1cc(Cl)c2c(c1)nc(-c1cc3ccc4nc3n1CC(F)(F)CCC[C@@H]1C[C@H]1C(=O)N[C@@H]4C)n2C1CC1` [Example 805, (2~{R},5~{R},7~{R})-14-[5-[(2~{R},3~{R})-3-amino-2-methyl-piperidine-1-carbonyl]-7-chloro-1-cyclopropyl-benzimidazol-2-yl]-11,11-difluoro-2-methyl-3,13,19-triazatetracyclo[11.5.2.0^ {5,7}.0^{16,20}]icosa-1(18),14,16,19-tetraen-4-one], the IC50 amounted to 6 nM.
As for `COc1cc(C(=O)N2CC[C@@H](OC(F)F)[C@@H](N)C2)cc2nc(-c3cc4ccc5nc4n3CCCCCc3ccc(Cl)nc3C(=O)N[C@@H]5C)n(C)c12` [Example 784, (2~{R})-17-[5-[(3~{S},4~{R})-3-amino-4-(difluoromethoxy)piperidine-1-carbonyl]-7-methoxy-1-methyl-benzimidazol-2-yl]-7-chloro-2-methyl-3,6,16,22-tetrazatetracyclo[14.5.2.0^ {5,10}.0^{19,23}]tricosa-1(21),5(10),6,8,17,19,22-heptaen-4-one], the figure is 97 nM; as for `CO[C@@H]1CCN(C(=O)c2cc(F)c3c(c2)nc(-c2cc4ccc5nc4n2CCCCCc2nc(Cl)ccc2C(=O)N[C@@H]5C)n3C)C[C@@H]1N` [Example 740, (2~{R})-17-[5-[(3~{S},4~ {R})-3-amino-4-methoxy-piperidine-1-carbonyl]-7-fluoro-1-methyl-benzimidazol-2-yl]-8-chloro-2-methyl-3,9,16,22-tetrazatetracyclo [14.5.2.0^{5,10}.0^{19,23}] tricosa-1(22),5(10),6,8,17,19(23),20-heptaen-4-one], 30 nM.
Regarding `COc1cc(C(=O)N2CCC[C@@H](N)C2)cc2nc(-c3cc4ccc5cc4n3CCCCCOC(C)(C)C(=O)N[C@@H]5C)n(C)c12` [Example 156, (11~{R})-17-[5-[(3~{R})-3-aminopiperidine-1-carbonyl]-7-methoxy-1-methyl-benzimidazol-2-yl]-8,8,11-trimethyl-7-oxa-1,10-diazatricyclo[10.5.2.0^{15,18}]nonadeca-12(19),13,15(18),16-tetraen-9-one], the concentration for half-maximal inhibition (IC50) is 56 nM.
Under `COc1cc(C(=O)N2CCC[C@@H](N)C2)cc2nc(-c3cc4ccc5cc4n3CCCCCCC3(CC3)C(=O)N[C@@H]5C)n(C3CC3)c12` [Example 159, (11~{R})-17-[5-[(3~{R})-3-aminopiperidine-1-carbonyl]-1-cyclopropyl-7-methoxy-benzimidazol-2-yl]-11-methyl-spiro[1,10-diazatricyclo[10.5.2.0^{15,18}]nonadeca-12(19),13,15(18),16-tetraene-8,1′-cyclopropane]-9-one] stands 62 nM.
`[2H]C([2H])([2H])O[C@@H]1CCN(C(=O)c2cc(OC)c3c(c2)nc(-c2cc4ccc5nc4n2CC(F)(F)CCC[C@@H]2C[C@H]2C(=O)N[C@@H]5C)n3C)C[C@@H]1N` [Example 637, (2~{R},5~{R},7~{R})-14-[5-[(3~{S},4~{R})-3-amino-4-(trideuteriomethoxy)piperidine-1-carbonyl]-7-methoxy-1-methyl-benzimidazol-2-yl]-11,11-difluoro-2-methyl-3,13,19-triazatetracyclo[11.5.2.0^ {5,7}.0^{16,20}] icosa-1(19),14,16(20), 17-tetraen-4-one]: the IC50 was found to be 31 nM.
As for `COc1cc(C(=O)N2[C@H]3CC[C@@H]2[C@H](N)C3)cc2nc(-c3cc4ccc5nc4n3CCCCCCC(=O)N[C@@H]5C)n(C3CC3)c12` [Example 254, (10~{R})-16-[5-[(1~{R},2~{R},4~{S})-2-amino-7-azabicyclo[2.2.1]heptane-7-carbonyl]-1-cyclopropyl-7-methoxy-benzimidazol-2-yl]-10-methyl-1,9,18-triazatricyclo[9.5.2.0^{14,17}]octadeca-11(18),12,14(17),15-tetraen-8-one], the figure is 32 nM; as for `COc1cc(C(=O)N2C[C@H](N)[C@@H]3CC[C@H]2C3)cc2nc(-c3cc4ccc5nc4n3CCCCCc3nc(C(F)(F)F)ccc3C(=O)N[C@@H]5C)n(C)c12` [Example 842, (2~{R})-17-[5-[(1~{S},4~{R},5~ {R})-4-amino-2-azabicyclo[3.2.1]octane-2-carbonyl]-7-methoxy-1-methyl-benzimidazol-2-yl]-2-methyl-8-(trifluoromethyl)-3,9,16,22-tetrazatetracyclo[14.5.2.0^ {5,10}.0^{19,23}]tricosa-1(22), 5(10),6,8,17,19(23),20-heptaen-4-one], 49 nM; as for `C[C@H]1NC(=O)c2nccnc2CCCC(F)(F)Cn2c(-c3nc4cc(C(=O)N5C[C@H](N)[C@@H]6CC[C@H]5C6)cc(F)c4n3C3CC3)cc3ccc1nc32` [Example 483, (2~{R})-17-[5-[(1~{S},4~{R},5~{R})-4-amino-2-azabicyclo[3.2.1]octane-2-carbonyl]-1-cyclopropyl-7-fluoro-benzimidazol-2-yl]-14,14-difluoro-2-methyl-3,6,9,16,22-pentazatetracyclo[14.5.2.0^{5,10}.0^{19, 23}]tricosa-1(22),5(10),6,8,17,19(23),20-heptaen-4-one], 33 nM.
